By MIC is commonly meant the least concentration at which growth counts as inhibited.

The results in this text go back to patent US12692253B2, “Antimicrobial compounds and methods” (Curza Global, LLC, priority 2019, dated 2026).

The subject of assay [1] is E. coli S30 extract (bacterial protein synthesis). The assay can be described thus: E. coli S30 extract coupled transcription-translation luciferase assay (inhibition of bacterial protein synthesis). The settings on record: class by IC50 or % inhibition @ 1 μM, read-out: S30 IC50 (μM/% inhib.). The assay is classed as biochemical. The method, boiled down:
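Luciferase luminescence quantified inhibition of protein synthesis relative to water controls, with no-DNA reactions giving background. Compounds in 2-fold serial dilution (8 levels) were incubated 1 hour at 37 °C with E. coli S30 extract, amino acids and pBESTluc plasmid, then chilled to stop.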

Assay [2] deals with Rabbit Reticulocyte Lysate (eukaryotic protein synthesis). The assay can be described thus: Rabbit reticulocyte lysate luciferase assay (inhibition of eukaryotic protein synthesis). The assay is classed as biochemical. The settings on record: class by IC50 or % inhibition @ 1 μM, read-out: Rabbit reticulocyte IC50 (μM/% inhib.). In short, it runs like this: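 Percent inhibition calculated against water-only controls from luminescence; background set by lysate lacking RNA. Compounds, 8-point 2-fold titration, incubated 90 minutes at 30° C with nuclease-treated rabbit reticulocyte lysate programmed with luciferase control RNA plus complete amino acids.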

The next assay relates to A. baumannn (Ab). Nature of the assay: Broth microdilution minimum inhibitory concentration (MIC), CLSI. The assay is classed as cell-based. The settings on record: Acinetobacter baumannii, read-out: Ab + bicarb MIC. The method, boiled down: (§1)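 CLSI M07-A9 broth microdilution, slightly modified: 8 two-fold compound dilutions in triplicate, CAMHB ± bicarbonate (6.25 or 25 mM final) or 0-50% heat-inactivated human serum; 5×10^4 CFU/well.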
(Broth dilution looks for growth in wells or tubes with falling amounts of substance.)

The next assay concerns E. coli (Ec). The description is as above. The assay is classed as cell-based. The settings on record: Escherichia coli, growth medium supplemented with sodium bicarbonate, read-out: E. coli + bicarb MIC. The method, boiled down:
as §1

A further assay concerns E. faecalis (Ef). The assay is described as above. The assay is classed as cell-based. The settings on record: Enterococcus faecalis, growth medium supplemented with sodium bicarbonate, read-out: Ef + bicarb MIC. The method, boiled down:
as §1

A further assay concerns P. aeruginosa (Pa). The assay is described as above. The format is cell-based. The settings on record: Pseudomonas aeruginosa, growth medium supplemented with sodium bicarbonate, read-out: Pa MIC + bicarb. The method, boiled down:
as §1

Another assay concerns S. aureus (Sa). The assay is described as above. The format is cell-based. The settings on record: Staphylococcus aureus, growth medium supplemented with sodium bicarbonate, read-out: Sa + bicarb MIC. The method, boiled down: as §1

For `NC[C@@H]1[C@H]2CN(CCc3ccc(-n4ccc(NC(=O)N5CCC6(CC5)CNC6)nc4=O)cc3)C[C@@H]12` [Compound 147], the IC50 in assay [1] and in assay [2] was at least 1 µM in each case. Also, the minimal inhibitory concentration (MIC) is above 32 µg/mL with A. baumannn (Ab); below 8 µg/mL with E. coli (Ec); above 32 µg/mL in the assay on E. faecalis (Ef); above 32 µg/mL with P. aeruginosa (Pa); below 8 µg/mL in the assay on S. aureus (Sa).
In the case of `NC[C@@H]1[C@H]2CN(CCc3ccc(-n4ccc(NC(=O)N5CC6(CCC6N)C5)nc4=O)cc3)C[C@@H]12` (stereo partly shown) [Compound 148], the IC50 in assay [1] and in assay [2] was at least 1 µM in each case. Further, the MIC with A. baumannn (Ab), in the assay with E. coli (Ec), in the assay with E. faecalis (Ef), in the assay on P. aeruginosa (Pa) and with S. aureus (Sa) was above 32 µg/mL each time.
Take `NC[C@@H]1[C@H]2CN(CCc3ccc(-n4ccc(NC(=O)N5CC6(CC(N)C6)C5)nc4=O)cc3)C[C@@H]12` [Compound 149]: the IC50 in assay [1] and in assay [2] was at least 1 µM in each case. Further, the MIC in the assay on A. baumannn (Ab) was above 32 µg/mL; in the assay on E. coli (Ec), 8 to 32 µg/mL; in the assay with E. faecalis (Ef), above 32 µg/mL; in the assay with P. aeruginosa (Pa), above 32 µg/mL; with S. aureus (Sa) it was 8 to 32 µg/mL.
On to `CCCC(Cc1ccc(-n2ccc(NC(=O)N3CCN(C(=O)C(C)(C)N)CC3)nc2=O)cc1)N1C[C@@H]2[C@@H](CN)[C@@H]2C1` (stereo partly shown) [Compound 150], for which the IC50 in assay [1] is below 0.5 µM; in assay [2], at least 1 µM. Moreover, the MIC in the assay with A. baumannn (Ab), in the assay with E. coli (Ec), in the assay with E. faecalis (Ef), in the assay with P. aeruginosa (Pa) and with S. aureus (Sa) was below 8 µg/mL in each case.
On to `CCC(Cc1ccc(-n2ccc(NC(=O)N3CCN(C(=O)[C@@](C)(N)CO)CC3)nc2=O)cc1)N1C[C@@H]2[C@@H](CN)[C@@H]2C1` (stereo partly shown) [Compound 151], for which the IC50 was below 0.5 µM in assay [1] and at least 1 µM in assay [2]. Also, the MIC was 8 to 32 µg/mL in the assay on A. baumannn (Ab); below 8 µg/mL in the assay on E. coli (Ec); below 8 µg/mL with E. faecalis (Ef); 8 to 32 µg/mL in the assay with P. aeruginosa (Pa); below 8 µg/mL with S. aureus (Sa).
`CC[C@@H](N)C1[C@H]2CN(CCc3ccc(-n4ccc(NC(=O)N5CCN(C(=O)C(C)(C)N)CC5)nc4=O)cc3)C[C@@H]12` (stereo partly shown) [Compound 152]: the IC50 in assay [1] and in assay [2] was at least 1 µM in each case. The MIC with A. baumannn (Ab) was above 32 µg/mL; in the assay on E. coli (Ec), 8 to 32 µg/mL; with E. faecalis (Ef) it was above 32 µg/mL; with P. aeruginosa (Pa) it was above 32 µg/mL; in the assay on S. aureus (Sa), above 32 µg/mL.
In the case of `CCCC(Cc1ccc(-n2ccc(NC(=O)N3CCN(C(=O)C(C)(C)N)CC3)nc2=O)cc1F)N1C[C@@H]2[C@@H](CN)[C@@H]2C1` (stereo partly shown) [Compound 153], the results for the IC50 in assay [1] and in assay [2] were below 0.5 µM and at least 1 µM, respectively. The MIC in the assay on A. baumannn (Ab) was below 8 µg/mL; in the assay on E. coli (Ec), below 8 µg/mL; in the assay on E. faecalis (Ef) it was below 8 µg/mL; with P. aeruginosa (Pa), 8 to 32 µg/mL; in the assay with S. aureus (Sa) it was below 8 µg/mL.
Regarding `CCC(Cc1ccc(-n2ccc(NC(=O)N3CCN(C(=O)C(C)(C)N)CC3)nc2=O)cc1F)N1C[C@@H]2[C@@H](CN)[C@@H]2C1` (stereo partly shown) [Compound 154], the IC50 is below 0.5 µM in assay [1] and at least 1 µM in assay [2]. In addition, the MIC in the assay with A. baumannn (Ab), in the assay on E. coli (Ec), in the assay with E. faecalis (Ef), in the assay on P. aeruginosa (Pa) and in the assay with S. aureus (Sa) was below 8 µg/mL in each case.
For the compound `CC(C)C(Cc1ccc(-n2ccc(NC(=O)N3CCN(C(=O)C(C)(C)N)CC3)nc2=O)cc1)N1C[C@@H]2[C@@H](CN)[C@@H]2C1` (stereo partly shown) [Compound 155], the IC50 in assay [1] was below 0.5 µM; in assay [2] it was at least 1 µM. The MIC in the assay on A. baumannn (Ab), in the assay with E. coli (Ec), with E. faecalis (Ef), in the assay with P. aeruginosa (Pa) and with S. aureus (Sa) was below 8 µg/mL each time.
With `CC(C)CC(Cc1ccc(-n2ccc(NC(=O)N3CCN(C(=O)C(C)(C)N)CC3)nc2=O)cc1)N1C[C@@H]2[C@@H](CN)[C@@H]2C1` (stereo partly shown) [Compound 156], the IC50 in assay [1] was below 0.5 µM; in assay [2], at least 1 µM. Besides, the MIC in the assay with A. baumannn (Ab), in the assay with E. coli (Ec), with E. faecalis (Ef), in the assay on P. aeruginosa (Pa) and in the assay with S. aureus (Sa) was below 8 µg/mL each time.
